Data as given in patent publication US20250025397A1, “AN OIL-IN-WATER EMULSION GEL COMPRISING TIOTROPIUM BROMIDE” (Dryox Health, S.L., priority 2021, published 2025).
Read-outs that look alike come from different tables or passages of the source.

Key:
[1] = Tiotropium maximum solubility in a selection of excipients; format: physicochemical
Experimental: For the evaluation of the compatibility of the active in each excipient, 25 mg of tiotropium bromide (TTB) were weighed in suitable glass containers and increasing amounts of the appropriate solvent were added. The samples were subjected to heating and ultrasonication when necessary. The appearance of the mixture and the maximum concentration of TTB in each solvent was recorded.
The solubility of the active was determined in different excipients (polymer solvents, permeation enhancers, surfactants, emollients, etc.). Table 1 summarizes the maximum solubility achieved in each of them.

[2] = cited from earlier work

Q: Which results are given for C[N+]1(C)[C@@H]2CC(OC(=O)C(O)(c3cccs3)c3cccs3)C[C@H]1[C@@H]1O[C@@H]12.[Br-] (stereo partly drawn) [Tiotropium bromide, [(1S,2S,4R,5R)-9,9-dimethyl-3-oxa-9-azoniatricyclo[3.3.1.0^2,4]nonan-7-yl]2-hydroxy-2,2-dithiophen-2-ylacetate bromide]?
A: Maximum solubility ([1]; in 1,3-propanediol): 2.50 % (w/w); Maximum solubility ([1]; in Benzyl Alcohol): 50.00 % (w/w); Maximum solubility ([1]; in Cremophor EL): 0.20 % (w/w); Maximum solubility ([1]; in Cremophor RH40): <0.12 % (w/w); Maximum solubility ([1]; in DMSO): >30.00 % (w/w); Maximum solubility ([1]; in Dimethyl fomamide): 40.00 % (w/w); Maximum solubility ([1]; in Ethanol): 0.80 % (w/w); Maximum solubility ([1]; in Ethyl Oleate): <0.12 % (w/w); Maximum solubility ([1]; in Glycerol): 6.00 % (w/w); Maximum solubility ([1]; in IPM): <0.12 % (w/w); Maximum solubility ([1]; in Isopropyl Alcohol): 0.13 % (w/w); Maximum solubility ([1]; in Kollicream ® 3C): <0.12 % (w/w); Maximum solubility ([1]; in Labrasol): 0.55 % (w/w); Maximum solubility ([1]; in Lactic acid): 20.00 % (w/w); Maximum solubility ([1]; in Linseed oil): <0.12 % (w/w); Maximum solubility ([1]; in MCT): <0.12 % (w/w); Maximum solubility ([1]; in Oleic acid): <0.12 % (w/w); Maximum solubility ([1]; in PEG-400): 1.67 % (w/w); Maximum solubility ([1]; in Polysorbate 20): 1.15 % (w/w); Maximum solubility ([1]; in Polysorbate 80): 0.20 % (w/w); Maximum solubility ([1]; in Propylene Glycol): 5.00 % (w/w); Maximum solubility ([1]; in Transcutol HP): <0.12 % (w/w); Maximum solubility ([1]; in Triacetin): <0.12 % (w/w); Maximum solubility ([1]; in Triolein): <0.12 % (w/w); solubility ([2]; in dimethyl sulphoxide): freely soluble; solubility ([2]; in methanol): soluble; solubility ([2]; in methylene chloride): practically insoluble; solubility ([2]; in water): sparingly soluble; solubility in aqueous solutions ([2]; room temperature, independent of pH): approx. 2.5%
